{
  "source": "patent US20040229791A1",
  "about": "“Compositions and methods of modulating TGF-beta activity by fatty acids” (priority 2002, published 2004)",
  "assay": "Plasma clearance of 125I-TGF-β2 with and without α2M* and arachidonic acid",
  "type": "in vivo, mice",
  "settings": "control experiments, no α2M*",
  "procedure": "TGF ? β1-α2M* and TGF- ? 2- ? 2M* complexes are cleared from plasma by the ? liver (30). To test the possibility that fatty acids may be able to affect the plasma clearance of TGF ? β and α2M* complexes, ^125I-TGF ? β1 or ^125I-TGF- ? 2 were prei presence or absence of 10 μM arachidonic acid at room temperature for 30 min, and then injected into mice via tail vein according to published procedures (19). At several time intervals (10 sec, 1, 2, 3, 5, 10, 15, 20, 30 and 60 min) about 50 μl of blood was collected and counted by a γ-counter. […] The t 1+α2M* or ^125I-TGF- ? 2+α2M* were approximately 4 min. These twith published values of free ^125I-TGF- ? 1,2 and ^125I-TGF- ? 1,2-α2M* complexes, respe (19). In the presence of arachidonic acid, the t1/2s of ^125I-TGF ? β1+α2M* and ^125I-TGF α2M* were decreased to approximately 1-2 min; these are essentially identical to the t1/2s of free ^125I-TGF- ? 1 and ^125I-TGF ? β2 (FIGS. 7A and B). In control experiments, arachidonic acid did no affect the plasma clearance of free ^125I-TGF ? β1 and ^125I-TGF- ? 2.\nPlasma clearance of ^125I-TGF ? β in the presence and absence of ? 2M*-^125I-TGF- ? 1 nM) or ^125I-TGF- ? 2 (1 nM) was pre-incubated with ? […] The radioactivity in the blood sample obtained at 10 s was taken as 100%.",
  "data": [
    {"smiles": "CCCCC/C=C\\C/C=C\\C/C=C\\C/C=C\\CCCC(=O)O", "note": "[arachidonic acid]", "values": [
      {"measurement": "effect on plasma clearance of free 125I-TGF-β2", "result": "did no affect"}
    ]}
  ]
}
